These results are taken from patent US20250368634A1, “PHENYL AMIDE COMPOUNDS AND METHODS OF USE” (SCHRÖDINGER, INC., priority 2022, published 2025).

Structures are written as SMILES.

For one assay, the target named is SOS1-KRas (G12C) (Homo sapiens (Human), UniProt Q07889). Briefly: SOS1-KRas (G12C) FRET Assay. Format: binding.
Sequence of SOS1-KRas (G12C) (Q07889 564-1049, stated change not applied): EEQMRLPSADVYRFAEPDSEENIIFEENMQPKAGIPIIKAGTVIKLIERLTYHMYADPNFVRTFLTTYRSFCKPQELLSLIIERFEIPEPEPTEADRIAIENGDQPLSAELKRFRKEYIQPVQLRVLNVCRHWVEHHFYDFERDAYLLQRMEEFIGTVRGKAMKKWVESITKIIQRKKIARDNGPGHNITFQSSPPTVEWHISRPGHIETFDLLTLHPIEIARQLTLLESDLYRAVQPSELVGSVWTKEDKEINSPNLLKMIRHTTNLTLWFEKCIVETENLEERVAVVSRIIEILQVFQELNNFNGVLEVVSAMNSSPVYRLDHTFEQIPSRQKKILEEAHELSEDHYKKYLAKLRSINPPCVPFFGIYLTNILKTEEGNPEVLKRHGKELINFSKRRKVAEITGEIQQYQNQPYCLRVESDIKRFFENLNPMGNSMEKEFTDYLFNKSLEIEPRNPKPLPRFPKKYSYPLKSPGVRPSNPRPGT
Conditions: not given
Consider `C[C@@H](NC(=O)c1cc(N2C[C@@H]3C[C@H]2CO3)c(F)cc1NC1CCN(C)CC1)c1cccc(C(F)F)c1F` [Example 19, 5-((1S,4S)-2-oxa-5-azabicyclo[2.2.1]heptan-5-yl)-N—((R)-1-(3-(difluoromethyl)-2-fluorophenyl)ethyl)-4-fluoro-2-((1-methylpiperidin-4-yl)amino)benzamide], for which half-maximal inhibition (IC50) was put at 99.4 nM.

Take `C[C@@H](NC(=O)c1cc(-c2ccc(=O)n(C)c2)c(F)cc1NC1CCN(C)CC1)c1cccc(C(F)F)c1F` [Example 62, (R)-N-(1-(3-(difluoromethyl)-2-fluorophenyl)ethyl)-4-fluoro-5-(1-methyl-6-oxo-1,6-dihydropyridin-3-yl)-2-((1-methylpiperidin-4-yl)amino)benzamide]: it took 10.5 nM to reach half-maximal inhibition (IC50). Same read-out and setting: then `C[C@@H](NC(=O)c1cc(N2CCn3nccc3C2)c(F)cc1NC1CCN(C)CC1)c1cccc(C(F)F)c1F` [Example 7, (R)—N-(1-(3-(difluoromethyl)-2-fluorophenyl)ethyl)-5-(6,7-dihydropyrazolo[1,5-a]pyrazin-5 (4H)-yl)-4-fluoro-2-((1-methylpiperidin-4-yl)amino)benzamide], with 27.9 nM; and `C[C@@H](NC(=O)c1cc(N2CC[C@]23CCOC3)c(F)cc1NC1CCN(C)CC1)c1cccc(C(F)F)c1F` (single isomer, unassigned) [Example 35], with 81.5 nM.

The assay is the same for the next values; noted with them: inhibition of SOS1:KRAS interaction; 0.5 nM His10-SOS1 (res. 564-1049), 2.5 nM GST-KRAS (res. 1-169, G12C); 2 hrs at RT.
Consider `CNC(=O)c1cc(C(=O)N[C@H](C)c2cccc(C(F)F)c2F)c(NC2CCN(C)CC2)cc1F` [Example 73, (R)—N1-(1-(3-(difluoromethyl)-2-fluorophenyl)ethyl)-4-fluoro-N3-methyl-6-((1-methylpiperidin-4-yl)amino)isophthalamide], for which the IC50 (as a rule, the concentration needed to halve the response being measured) was found to be 148 nM. Still for that read-out and setting: under `C[C@@H](NC(=O)c1cc(C(=O)N2CCOCC2)c(F)cc1NC1CCN(C)CC1)c1cccc(C(F)F)c1F` [Example 77, (R)—N-(1-(3-(difluoromethyl)-2-fluorophenyl)ethyl)-4-fluoro-2-((1-methylpiperidin-4-yl)amino)-5-(morpholine-4-carbonyl)benzamide] stands 240 nM; under `C[C@@H](NC(=O)c1cc(O[C@H]2CCOC2)c(F)cc1NC1CCN(C)CC1)c1cccc(C(F)F)c1F` [Example 10, N—((R)-1-(3-(difluoromethyl)-2-fluorophenyl)ethyl)-4-fluoro-2-((1-methylpiperidin-4-yl)amino)-5-(((S)-tetrahydrofuran-3-yl)oxy)benzamide], 71.6 nM.

For the compound `C[C@@H](NC(=O)c1cc(N2CCOCC2)c(F)cc1NCCN(C)C)c1cccc(C(F)F)c1F` [Example 48, (R)—N-(1-(3-(difluoromethyl)-2-fluorophenyl)ethyl)-2-((2-(dimethylamino)ethyl)amino)-4-fluoro-5-morpholinobenzamide], inhibition was half-maximal at 63.8 nM (IC50). This IC50 and that of the compound before are within 1.5-fold of each other. The same measure, in the same setting: under `Cc1c([C@@H](C)NC(=O)c2cc(N3CCOCC3)ccc2NC2CCN(C)CC2)cccc1C(F)(F)F` [Example 23, (R)—N-(1-(2-methyl-3-(trifluoromethyl)phenyl)ethyl)-2-((1-methylpiperidin-4-yl)amino)-5-morpholinobenzamide] stands 358 nM; under `COC(=O)c1ccc(NC2CCN(C)CC2)c(C(=O)N[C@H](C)c2cccc(C(F)F)c2F)c1` [Example 78, methyl (R)-3-((1-(3-(difluoromethyl)-2-fluorophenyl)ethyl)carbamoyl)-4-((1-methylpiperidin-4-yl)amino)benzoate], 230 nM; under `Cc1c([C@@H](C)NC(=O)c2cc(N3CCOCC3)c(F)cc2NC2CCN(C)CC2)cccc1C(F)(F)F` [Example 3, (R)-4-fluoro-N-(1-(2-methyl-3-(trifluoromethyl)phenyl)ethyl)-2-((1-methylpiperidin-4-yl)amino)-5-morpholinobenzamide], 56.9 nM.

Turning to `C[C@@H](NC(=O)c1cc(N2CCOCC2)c(C#N)cc1N[C@H]1CN2CCC1CC2)c1cccc(C(F)F)c1F` [Example 24, 4-cyano-N—((R)-1-(3-(difluoromethyl)-2-fluorophenyl)ethyl)-5-morpholino-2-(((R)-quinuclidin-3-yl)amino)benzamide], 22.7 nM corresponded to half-maximal inhibition (IC50). This IC50 lies about 2.5-fold lower than the previous one.

The compound `C[C@@H](NC(=O)c1cc(N2CCOCC2)c(F)cc1N[C@@H]1[C@@H]2C[C@H]1CN(C)C2)c1cccc(C(F)F)c1F` [Example 17, N—((R)-1-(3-(difluoromethyl)-2-fluorophenyl)ethyl)-4-fluoro-2-(((1R,5S,6s)-3-methyl-3-azabicyclo[3.1.1]heptan-6-yl)amino)-5-morpholinobenzamide] showed an IC50 of 98.9 nM.

Turning to `C[C@@H](NC(=O)c1cc(N2CCC2)c(F)cc1N[C@@H]1CN2CCC1CC2)c1cccc(C(F)F)c1F` [Example 28, 5-(azetidin-1-yl)-N—((R)-1-(3-(difluoromethyl)-2-fluorophenyl)ethyl)-4-fluoro-2-(((S)-quinuclidin-3-yl)amino)benzamide], the IC50 was determined as 61.3 nM.

As for `Cc1c(C#N)cccc1[C@@H](C)NC(=O)c1cc(N2CCOCC2)c(F)cc1N[C@H]1CN2CCC1CC2` [Example 45, N—((R)-1-(3-cyano-2-methylphenyl)ethyl)-4-fluoro-5-morpholino-2-(((R)-quinuclidin-3-yl)amino)benzamide], half-maximal inhibition (IC50) was put at 69.2 nM. Still for that read-out and setting: then `C[C@@H](NC(=O)c1cc(C23CC(C2)C3)c(F)cc1NC1CCN(C)CC1)c1cccc(C(F)F)c1F` [Example 68, (R)-5-(bicyclo[1.1.1]pentan-1-yl)-N-(1-(3-(difluoromethyl)-2-fluorophenyl)ethyl)-4-fluoro-2-((1-methylpiperidin-4-yl)amino)benzamide], with 138 nM; and `C[C@@H](NC(=O)c1cc(-c2ccnnc2)c(F)cc1NC1CCN(C)CC1)c1cccc(C(F)F)c1F` [Example 65, (R)-N-(1-(3-(difluoromethyl)-2-fluorophenyl)ethyl)-4-fluoro-2-((1-methylpiperidin-4-yl)amino)-5-(pyridazin-4-yl)benzamide], with 6.9 nM. Same read-out and setting: under `C[C@@H](NC(=O)c1cc(N2CCC(F)(F)C2)c(F)cc1N[C@@H]1CN2CCC1CC2)c1cccc(C(F)F)c1F` [Example 26, N—((R)-1-(3-(difluoromethyl)-2-fluorophenyl)ethyl)-5-(3,3-difluoropyrrolidin-1-yl)-4-fluoro-2-(((S)-quinuclidin-3-yl)amino)benzamide] stands 88.8 nM; under `C[C@@H](NC(=O)c1cc(N2CCOCC2)c(F)cc1NC1CCNCC1)c1cccc(C(F)F)c1F` [Example 14, (R)—N-(1-(3-(difluoromethyl)-2-fluorophenyl)ethyl)-4-fluoro-5-morpholino-2-(piperidin-4-ylamino)benzamide], 21.7 nM. Still for that read-out and setting: then `C[C@@H](NC(=O)c1cc(N2CCOCC2)c(F)cc1NC(C)(C)C#N)c1cccc(C(F)F)c1F` [Example 51, (R)-2-((2-cyanopropan-2-yl)amino)-N-(1-(3-(difluoromethyl)-2-fluorophenyl)ethyl)-4-fluoro-5-morpholinobenzamide], with 333 nM; and `C[C@@H](NC(=O)c1cc(N2CCOCC2)c(Cl)cc1N[C@@H]1CN2CCC1CC2)c1cccc(C(F)F)c1F` [Example 81, 4-chloro-N—((R)-1-(3-(difluoromethyl)-2-fluorophenyl)ethyl)-5-morpholino-2-(((S)-quinuclidin-3-yl)amino)benzamide], with 12.6 nM; and `C[C@@H](NC(=O)c1cc(N2CC[C@]3(CCOC3)C2)c(F)cc1NC1CCN(C)CC1)c1cccc(C(F)F)c1F` (single isomer, unassigned) [Example 31], with 40.4 nM. With `Cc1c(C#N)cccc1[C@@H](C)NC(=O)c1cc(N2CCOCC2)c(F)cc1N[C@@H]1CN2CCC1CC2` [Example 44, N—((R)-1-(3-cyano-2-methylphenyl)ethyl)-4-fluoro-5-morpholino-2-(((S)-quinuclidin-3-yl)amino)benzamide], the IC50 turned out to be 210 nM. Against the preceding compound, the IC50 is about 5.2-fold higher.

In the case of `Cc1c([C@@H](C)NC(=O)c2cc(N3CCOCC3)c(Cl)cc2NC2CCN(C)CC2)cccc1C(F)(F)F` [Example 13, (R)-4-chloro-N-(1-(2-methyl-3-(trifluoromethyl)phenyl)ethyl)-2-((1-methylpiperidin-4-yl)amino)-5-morpholinobenzamide], the half-inhibitory concentration (IC50) was found to be 67.2 nM.

Consider `C[C@@H](NC(=O)c1cc(N2CC[C@@]3(CCOC3)C2)c(F)cc1NC1CCN(C)CC1)c1cccc(C(F)F)c1F` (single isomer, unassigned) [Example 30], for which the IC50 was 39.6 nM. This IC50 lies about 1.7-fold lower than the previous one.

With `Cc1c([C@@H](C)NC(=O)c2cc(N3CC4(C3)CS(=O)(=O)C4)c(F)cc2NC2CCN(C)CC2)cccc1C(F)(F)F` [Example 8, (R)-5-(2,2-dioxido-2-thia-6-azaspiro[3.3]heptan-6-yl)-4-fluoro-N-(1-(2-methyl-3-(trifluoromethyl)phenyl)ethyl)-2-((1-methylpiperidin-4-yl)amino)benzamide], it took 74.5 nM to reach half-maximal inhibition (IC50). On the same count and under the same terms, under `C[C@@H](NC(=O)c1cc(C2CC2)c(F)cc1NC1CCN(C)CC1)c1cccc(C(F)F)c1F` [Example 67, (R)-5-cyclopropyl-N-(1-(3-(difluoromethyl)-2-fluorophenyl)ethyl)-4-fluoro-2-((1-methylpiperidin-4-yl)amino)benzamide] stands 216 nM; under `C[C@@H](NC(=O)c1cc(C(=O)N(C)C)c(F)cc1NC1CCN(C)CC1)c1cccc(C(F)F)c1F` [Example 75, (R)—N1-(1-(3-(difluoromethyl)-2-fluorophenyl)ethyl)-4-fluoro-N3,N3-dimethyl-6-((1-methylpiperidin-4-yl)amino)isophthalamide], 244 nM.
